Test results reported in US10668123B2, “Capsicum compositions and uses thereof” (OmniActive Health Technologies Limited, priority 2015, dated 2020).

Test system: 3T3L1 cells
Test: Lipolysis in 3T3L1 cells, glycerol release as biomarker
Format: cell-based
Conditions: positive control, time and concentration not given
Description: Pancreatic lipase activity was measured using 4-methylumbelliferyl oleate (MU Oleate) as a substrate via a fluorescence kinetic assay. 3T3L1 cells were treated with capsicum composition (100 μg/1111) at different time points such as 1 hour (h), 2 h, 4 h and 24 h. […] was used as the positive control. Lipolysis was assessed using glycerol release as a biomarker.
Capsicum composition enhanced the lipolysis after 24 h treatment. The ratio of released glycerol/protein content was 1.59, compared to the positive control:isoproterenol (ratio: 1.60).

## CC(C)NCC(O)c1ccc(O)c(O)c1 (stereo not shown) [Isoproterenol]
  Ratio treated/non treated (lipolysis): 1.60
